Converted amounts (≈) assume the structure as drawn. *1 amine or outer side, *2 acyl side, *3 side chain or, on linkers, in order; H or OH if unused. Where a SMILES comes first, the peptide text is derived from it. Bridges are numbered along the chain shown (N, C = ends). Roman numbers before positions name the chains, in order. [ ]: non-standard residue; d: D form. Actinocin(1to9) = Cc1c2oc3c(C)ccc(C(=O)[*:2])c3nc-2c(C(=O)[*:1])c(N)c1=O; Pro(4-oxo) = O=C1CN[C@H](C(=O)O)C1; NMeV = CN[C@H](C(=O)O)C(C)C; Sar = CNCC(=O)O
Tests used:
[1] = tested on: Mycobacterium tuberculosis variant bovis; test: Antibacterial activity against Mycobacterium bovis BCG str. Pasteur 1173P2 incubated for 3 days by GFP based fluorescence assay; type: functional; details: 72 h
[2] = tested on: Mycobacterium tuberculosis variant bovis; test: Antibacterial activity against Mycobacterium bovis BCG str. Pasteur 1173P2 incubated for 16 hrs; type: functional

SMILES	MIC [1] [µg/mL]	MIC [2] [µg/mL]
Cc1c2oc3c(C)ccc(C(=O)N[C@@H]4C(=O)N[C@H](C(C)C)C(=O)N5CCC[C@H]5C(=O)N(C)CC(=O)N(C)[C@@H](C(C)C)C(=O)O[C@@H]4C)c3nc-2c(C(=O)N[C@@H]2C(=O)N[C@H](C(C)C)C(=O)N3CC(O)C[C@H]3C(=O)N(C)CC(=O)N(C)[C@@H](C(C)C)C(=O)O[C@@H]2C)c(N)c1=O (stereo not given in full)	0.2 to 0.5 (≈ 0.157 to 0.393 µM)	–
Cc1c2oc3c(C)ccc(C(=O)N[C@@H]4C(=O)N[C@H](C(C)C)C(=O)N5CCC[C@H]5C(=O)N(C)CC(=O)N(C)[C@@H](C(C)C)C(=O)O[C@@H]4C)c3nc-2c(C(=O)N[C@@H]2C(=O)N[C@H](C(C)C)C(=O)N3CCC[C@H]3C(=O)N(C)CC(=O)N(C)[C@@H](C(C)C)C(=O)O[C@@H]2C)c(N)c1=O [DACTINOMYCIN] (I: T[dV]P[Sar][NMeV] / II: T[dV]P[Sar][NMeV]; ester I:1-I:C, II:1-II:C; linker I:N-II:N via Actinocin(1to9))	0.2 to 0.5 (≈ 0.159 to 0.398 µM)	–
COC(=O)N[C@H]1[C@@H](C)O[C@@H](O[C@H]2C/C=C(\C)[C@@H]3C=C[C@@H]4[C@@H](O[C@H]5C[C@@H](O[C@H]6C[C@@H](O)[C@@H](O[C@@H]7C[C@@H](O)[C@@H](OC)[C@H](C)O7)[C@H](C)O6)[C@@H](O)[C@H](C)O5)[C@@H](C)C[C@H](C)[C@H]4[C@]3(C)C(=O)C3=C(O)[C@@]4(C[C@@H](C)C(CO)=C[C@H]4/C=C/2C)OC3=O)C[C@]1(C)[N+](=O)[O-]	–	0.8 to 1.5 (≈ 0.674 to 1.26 µM)
COC(=O)N[C@H]1[C@@H](C)O[C@@H](O[C@H]2C/C=C(\C)[C@@H]3C=C[C@@H]4[C@@H](O[C@H]5C[C@@H](O[C@H]6C[C@@H](O)[C@@H](O[C@@H]7C[C@@H](O)[C@@H](OC)[C@H](C)O7)[C@H](C)O6)[C@@H](O)[C@H](C)O5)[C@@H](C)C[C@H](C)[C@H]4[C@]3(C)C(=O)C3=C(O)[C@@]4(C[C@@H](C)C(CO)=C[C@H]4/C=C/2C)OC3=O)C[C@]1(C)N	–	0.8 to 1.5 (≈ 0.691 to 1.3 µM)
Cc1c2oc3c(C)ccc(C(=O)N[C@@H]4C(=O)N[C@H](C(C)C)C(=O)N5CCC[C@H]5C(=O)N(C)CC(=O)N(C)[C@@H](C(C)C)C(=O)O[C@@H]4C)c3nc-2c(C(=O)N[C@@H]2C(=O)N[C@H](C(C)C)C(=O)N3CC(=O)C[C@H]3C(=O)N(C)CC(=O)N(C)[C@@H](C(C)C)C(=O)O[C@@H]2C)c(N)c1=O (I: T[dV][Pro(4-oxo)][Sar][NMeV] / II: T[dV]P[Sar][NMeV]; ester I:1-I:C, II:1-II:C; linker I:N-II:N via Actinocin(1to9))	0.2 to 0.5 (≈ 0.158 to 0.394 µM)	–

— ChEMBL document CHEMBL4270488, “Antibacterial Compounds from Marine Bacteria, 2010-2015” (J Nat Prod, 2017)
